# According to publication PMC4942689, “Deciphering the function of the CNGB1b subunit in olfactory CNG channels” (Scientific Reports, 2016):
# Where “and” joins values, the source holds several entries; their conditions need not be identical. Equal entries are not always repeated. Where two headings read alike, the source gives them in different places.
# Experiments:
# CNGA2RE:A4 = system: CNGA2RE:A4; design: method as in Nache et al., 2012; key: +: ligand binding to the respective modulatory subunits was either observed or not; −: ligand binding to the respective modulatory subunits was either observed or not; details: 10 μM; construct CNGA2RE:A4; ref Nache et al., 2012; cited from earlier work
# CNGA2RE:A4:B1b channels = target: T1, CNGA2RE:A4:B1b channels (Rattus norvegicus, UniProt A0A8I5ZN27+Q00195+Q64359, R538E); assay: Concentration-activation relationship, patch-clamp; type: biochemical; details: for EC50: Equation 2, +100 mV
# T1 construct: expressed in transfected cells; host or cells: Xenopus laevis oocytes (cRNA injection), excised inside-out patches
# T1 sequence (Q00195 whole entry R538E): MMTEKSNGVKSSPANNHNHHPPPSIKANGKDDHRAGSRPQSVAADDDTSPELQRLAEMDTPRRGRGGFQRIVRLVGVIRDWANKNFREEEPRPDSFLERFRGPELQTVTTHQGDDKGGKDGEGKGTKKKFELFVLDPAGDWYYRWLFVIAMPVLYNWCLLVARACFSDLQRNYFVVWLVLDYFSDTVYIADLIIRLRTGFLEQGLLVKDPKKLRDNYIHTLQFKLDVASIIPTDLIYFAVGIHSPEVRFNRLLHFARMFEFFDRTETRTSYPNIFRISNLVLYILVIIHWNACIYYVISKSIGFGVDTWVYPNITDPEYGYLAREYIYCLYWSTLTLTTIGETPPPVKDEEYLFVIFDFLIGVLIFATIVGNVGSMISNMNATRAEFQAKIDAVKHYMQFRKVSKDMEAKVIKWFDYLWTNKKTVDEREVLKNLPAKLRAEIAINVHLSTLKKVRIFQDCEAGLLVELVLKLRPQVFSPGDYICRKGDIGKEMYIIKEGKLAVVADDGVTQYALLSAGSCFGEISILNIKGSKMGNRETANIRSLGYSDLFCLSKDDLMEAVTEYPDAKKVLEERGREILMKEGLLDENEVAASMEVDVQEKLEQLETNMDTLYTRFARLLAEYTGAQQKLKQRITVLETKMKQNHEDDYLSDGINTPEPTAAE
# T1 sequence (Q64359 whole entry): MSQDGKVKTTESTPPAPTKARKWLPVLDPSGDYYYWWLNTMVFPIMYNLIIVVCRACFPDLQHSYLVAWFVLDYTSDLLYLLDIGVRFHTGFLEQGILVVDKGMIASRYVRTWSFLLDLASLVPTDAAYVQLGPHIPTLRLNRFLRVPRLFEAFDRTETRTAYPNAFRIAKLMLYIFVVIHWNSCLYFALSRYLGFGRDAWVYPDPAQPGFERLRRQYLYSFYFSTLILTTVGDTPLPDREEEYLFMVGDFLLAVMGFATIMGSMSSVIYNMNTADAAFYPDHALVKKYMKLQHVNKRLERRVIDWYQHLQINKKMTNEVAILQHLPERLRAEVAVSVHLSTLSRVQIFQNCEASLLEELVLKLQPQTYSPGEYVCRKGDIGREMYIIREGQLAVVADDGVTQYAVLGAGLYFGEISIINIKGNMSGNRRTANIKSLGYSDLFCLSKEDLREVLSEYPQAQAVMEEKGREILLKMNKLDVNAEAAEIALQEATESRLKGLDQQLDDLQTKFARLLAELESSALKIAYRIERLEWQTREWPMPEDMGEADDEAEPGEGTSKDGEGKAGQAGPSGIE
# T1 sequence (A0A8I5ZN27 1-858 isoform A0A8I5ZN27-2, stated change not applied): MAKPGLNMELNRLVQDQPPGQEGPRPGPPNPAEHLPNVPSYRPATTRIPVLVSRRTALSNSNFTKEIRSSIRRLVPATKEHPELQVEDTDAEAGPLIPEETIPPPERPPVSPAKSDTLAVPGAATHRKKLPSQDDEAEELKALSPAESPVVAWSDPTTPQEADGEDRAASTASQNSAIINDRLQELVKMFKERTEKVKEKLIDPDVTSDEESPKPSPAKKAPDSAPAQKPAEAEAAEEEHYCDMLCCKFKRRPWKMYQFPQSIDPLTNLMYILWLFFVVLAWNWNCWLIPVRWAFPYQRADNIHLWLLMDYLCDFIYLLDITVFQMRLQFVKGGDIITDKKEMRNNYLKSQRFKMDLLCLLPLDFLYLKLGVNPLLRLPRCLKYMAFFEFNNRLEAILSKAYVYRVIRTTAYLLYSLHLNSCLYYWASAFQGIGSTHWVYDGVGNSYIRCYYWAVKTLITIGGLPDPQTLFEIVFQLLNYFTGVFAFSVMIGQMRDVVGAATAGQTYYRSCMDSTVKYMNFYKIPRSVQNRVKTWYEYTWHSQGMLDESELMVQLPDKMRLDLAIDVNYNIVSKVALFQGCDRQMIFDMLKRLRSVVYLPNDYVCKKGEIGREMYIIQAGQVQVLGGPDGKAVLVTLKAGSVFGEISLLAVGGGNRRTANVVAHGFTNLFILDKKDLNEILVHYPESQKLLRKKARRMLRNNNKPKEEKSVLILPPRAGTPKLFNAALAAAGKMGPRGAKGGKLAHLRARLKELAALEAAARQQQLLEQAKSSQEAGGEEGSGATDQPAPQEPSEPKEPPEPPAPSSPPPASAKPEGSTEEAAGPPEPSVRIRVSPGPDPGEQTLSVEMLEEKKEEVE
# Description: In order to consider the combined apparent affinity of CNGA4 and CNGB1b, we measured the concentration-response relationship of CNGA2RE:A4:B1b channels (Fig. 3c; Table 1).
# Patch-clamp experiments were performed using an Axopatch 200B amplifier (Molecular Devices LLC, CA, U.S.A.) in the inside-out configuration. The patch pipettes for recording of macroscopic currents were pulled from borosilicate glass tubing (outer diameter 2.0 mm, inner diameter 1.0 mm; Hilgenberg GmbH, Germany). The initial resistance was 0.7–1.3 MΩ. The patches were formed as pushed inside-out patches. […] Cyclic nucleotide concentration jumps were performed using a double-barreled glass pipette mounted on a piezo-driven device. Intracellular (bath) and extracellular (pipette) solutions contained (mM) 150 KCl, 1 EGTA, 5 Hepes, pH = 7.4 with KOH. […] Currents in the absence of the cyclic nucleotide were subtracted. All patches included in this study were first tested for channel expression in the presence of a saturating ligand concentration. Only patches with large current, i.e. a large number of channels, were included in our statistics. The currents were measured at +10 mV or, if mentioned, at +100 mV.
# Fits of equations to data points were performed with the 8.1G® software (OriginLab Corporation, Northampton, U.S.A.). Concentration-activation relationships were obtained by relating the actual current amplitude, I, to the maximum current amplitude elicited by a saturating concentration of ligand, Imax, and plotting this ratio as function of the ligand concentration, x. The concentration-activation data were fitted using the Hill equation
# For the concentration-activation relationships showing two components, the data points were fitted to the sum of two Hill equations according to
# EC50,h, EC50,l, Hh, and Hl are the ligand concentration of half maximum current and the Hill coefficient for the high and low affinity component, respectively. a and (1-a) denote the contribution of the high and low affinity component, respectively.
Molecule,Ligand binding to CNGA4 (CNGA2RE:A4),"Hh (CNGA2RE:A4:B1b channels; Hill coefficient of high affinity component, +100 mV)","H1 (CNGA2RE:A4:B1b channels; Hill coefficient of low affinity component, +100 mV)",contribution of the high-affinity component (a) (CNGA2RE:A4:B1b channels; combined contribution of CNGA4 and CNGB1b) [%],"a (contribution of the high affinity component) (CNGA2RE:A4:B1b channels; fraction, Equation 2)","EC50 (CNGA2RE:A4:B1b channels; high affinity component (CNGA4 and CNGB1b combined), read-out: EC50,h) [µM]","EC50 (CNGA2RE:A4:B1b channels; low affinity component, read-out: EC50,l) [µM]"
8-[DY-547]-AET-cGMP [fcGMP],+,–,–,–,–,–,–
Nc1nc2c(ncn2[C@@H]2O[C@@H]3COP(=O)(O)O[C@H]3[C@H]2O)c(=O)[nH]1 [cGMP],–,1.05 and 1.1,1.2,89,0.89,5.7,733
